Six compounds from patent US10370412B2, “Beta-hairpin peptidomimetics” (Polyphor AG, priority 2013, dated 2019) can be followed below.

Where a SMILES comes first, the peptide text is derived from it. [ ]: non-standard residue; d: D form. Cha = N[C@@H](CC1CCCCC1)C(=O)O; Chg = N[C@H](C(=O)O)C1CCCCC1; Tle = CC(C)(C)[C@H](N)C(=O)O; dDab = NCC[C@@H](N)C(=O)O; Orn = NCCC[C@H](N)C(=O)O; Dab = NCC[C@H](N)C(=O)O

The data set concerns human red blood cells (hRBC). It is filed as cell-based. The conditions noted are these: red cells of human, 1 h. The method in brief: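 Compounds at 100 μg/ml incubated with 20% (v/v) washed human erythrocytes (~0.9×10^9 cells/ml final) for 1 h at 37° C with shaking. Supernatant OD540 read after 8-fold dilution; % hemolysis = OD540 sample / OD540 of 2.5% Triton X-100 lysis × 100, with PBS/0.001% acetic acid as 0%.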
Turning to `CC(C)C[C@@H]1NC(=O)[C@@H]2CCCN2C(=O)[C@H]2CCCN2C(=O)[C@H](CO)NC(=O)[C@H](CC(N)=O)NC(=O)[C@H](C(C)(C)C)NC(=O)[C@H](CCN)NC(=O)[C@H](Cc2c[nH]c3ccccc23)NC(=O)[C@H](CCN)NC(=O)[C@@H](CCN)NC(=O)[C@H](CCCN)NC(=O)[C@H](CCN)NC(=O)[C@H](Cc2ccc(O)cc2)NC(=O)[C@H](Cc2ccc(O)cc2)NC1=O` [compound 33, cyclo(-Leu-Tyr-Tyr-Dab-Orn-^DDab-Dab-Trp-Dab-tBuGly-Asn-Ser-^DPro-Pro-)] (cyclo(LYY[Dab][Orn][dDab][Dab]W[Dab][Tle]NS[dP]P)), the “Hemolysis at 100 μg/ml” value stood at 5%. In the case of `CC(C)C[C@@H]1NC(=O)[C@@H]2CCCN2C(=O)[C@H]2CCCN2C(=O)[C@H](CO)NC(=O)[C@H](C)NC(=O)[C@H](C2CCCCC2)NC(=O)[C@H](CCN)NC(=O)[C@H](Cc2c[nH]c3ccccc23)NC(=O)[C@H](CCN)NC(=O)[C@@H](CCN)NC(=O)[C@H](CCCN)NC(=O)[C@H](CCN)NC(=O)[C@H](C(C)(C)C)NC(=O)[C@H](Cc2c[nH]c3ccccc23)NC1=O` [compound 34, cyclo(-Leu-Trp-tBuGly-Dab-Orn-^DDab-Dab-Trp-Dab-Chg-Ala-Ser-^DPro-Pro-)] (cyclo(LW[Tle][Dab][Orn][dDab][Dab]W[Dab][Chg]AS[dP]P)), the “Hemolysis at 100 μg/ml” value is 1%. Regarding `CC[C@H](C)[C@@H]1NC(=O)[C@@H]2CCCN2C(=O)[C@H]2CCCN2C(=O)[C@H](CO)NC(=O)[C@H](C)NC(=O)[C@H](CC2CCCCC2)NC(=O)[C@H](CCN)NC(=O)[C@H](Cc2c[nH]c3ccccc23)NC(=O)[C@H](CCN)NC(=O)[C@@H](CCN)NC(=O)[C@H](CCCCN)NC(=O)[C@H](CCN)NC(=O)[C@H](C(C)(C)C)NC(=O)[C@H](Cc2c[nH]c3ccccc23)NC1=O` [compound 35, cyclo(-Ile-Trp-tBuGly-Dab-Lys-^DDab-Dab-Trp-Dab-Cha-Ala-Ser-^DPro-Pro-)] (cyclo(IW[Tle][Dab]K[dDab][Dab]W[Dab][Cha]AS[dP]P)), the “Hemolysis at 100 μg/ml” value was 1%. In the case of `CC(C)C[C@@H]1NC(=O)[C@@H]2CCCN2C(=O)[C@H]2CCCN2C(=O)[C@H](CO)NC(=O)[C@H](CO)NC(=O)[C@H](C2CCCCC2)NC(=O)[C@H](CCN)NC(=O)[C@H](Cc2c[nH]c3ccccc23)NC(=O)[C@H](CCN)NC(=O)[C@@H](CCN)NC(=O)[C@H](CCCN)NC(=O)[C@H](CCN)NC(=O)[C@H](C(C)(C)C)NC(=O)[C@H](Cc2c[nH]c3ccccc23)NC1=O` [compound 36, cyclo(-Leu-Trp-tBuGly-Dab-Orn-^DDab-Dab-Trp-Dab-Chg-Ser-Ser-^DPro-Pro-)] (cyclo(LW[Tle][Dab][Orn][dDab][Dab]W[Dab][Chg]SS[dP]P)), the “Hemolysis at 100 μg/ml” value is listed as 1%. Turning to `CC(C)C[C@@H]1NC(=O)[C@@H]2CCCN2C(=O)[C@H]2CCCN2C(=O)[C@H](CO)NC(=O)[C@H](CO)NC(=O)[C@H](C(C)(C)C)NC(=O)[C@H](CCN)NC(=O)[C@H](Cc2c[nH]c3ccccc23)NC(=O)[C@H](CCN)NC(=O)[C@@H](CCN)NC(=O)[C@H](CCCN)NC(=O)[C@H](CCN)NC(=O)[C@H](CC2CCCCC2)NC(=O)[C@H](Cc2c[nH]c3ccccc23)NC1=O` [compound 37, cyclo(-Leu-Trp-Cha-Dab-Orn-^DDab-Dab-Trp-Dab-tBuGly-Ser-Ser-^DPro-Pro-)] (cyclo(LW[Cha][Dab][Orn][dDab][Dab]W[Dab][Tle]SS[dP]P)), the “Hemolysis at 100 μg/ml” value is recorded as 1%. For `CC(C)C[C@@H]1NC(=O)[C@@H]2CCCN2C(=O)[C@H]2CCCN2C(=O)[C@H](CO)NC(=O)[C@H](Cc2ccc(O)cc2)NC(=O)[C@H](C(C)(C)C)NC(=O)[C@H](CCN)NC(=O)[C@H](Cc2c[nH]c3ccccc23)NC(=O)[C@H](CCN)NC(=O)[C@@H](CCN)NC(=O)[C@H](CCCN)NC(=O)[C@H](CCN)NC(=O)[C@H](Cc2ccc(O)cc2)NC(=O)[C@H](Cc2ccc(O)cc2)NC1=O` [compound 38, cyclo(-Leu-Tyr-Tyr-Dab-Orn-^DDab-Dab-Trp-Dab-tBuGly-Tyr-Ser-^DPro-Pro-)] (cyclo(LYY[Dab][Orn][dDab][Dab]W[Dab][Tle]YS[dP]P)), the “Hemolysis at 100 μg/ml” value was determined as 0%.
